This passage reports Activity, Activity_index and IC50 results from ChEMBL document CHEMBL4673359, “Molecular docking and synthesis of caffeic acid analogous and its anti-inflammatory, analgesic and ulcerogenic studies” (Bioorg Med Chem Lett, 2021).

Series [1] in a line: Acute toxicity in Swiss albino mouse assessed as behavioral changes at 200 mg/kg, po administered for 7 days and observed for 14 days. The following applies: in vivo, 336 h, time 14 day. Format: organism-based.
Series [2] can be described thus: Acute toxicity in Swiss albino mouse assessed as behavioral changes at 100 mg/kg, po administered for 7 days and observed for 14 days. Format: organism-based. To be noted: in vivo, 336 h, time 14 day.
Series [3] in a line: Acute toxicity in Swiss albino mouse assessed as survival at 100 mg/kg, po administered for 7 days and observed for 14 days. Format: organism-based. The following applies: in vivo, 336 h, time 14 day.
A short description of series [4]: Acute toxicity in Wistar rat assessed as survival at 200 mg/kg, po administered for 7 days and observed for 14 days. To be noted: in vivo, 336 h, time 14 day. Format: organism-based.
Series [5] is described as follows: Acute toxicity in Swiss albino mouse assessed as survival at 200 mg/kg, po administered for 7 days and observed for 14 days. In kind it is organism-based. To be noted: in vivo, 336 h, time 14 day.
A short description of series [6]: Acute toxicity in Wistar rat assessed as behavioral changes at 100 mg/kg, po administered for 7 days and observed for 14 days. Format: organism-based. To be noted: in vivo, 336 h, time 14 day.
Series [7] relates to Rattus norvegicus. As to the kind of experiment: Anti-inflammatory activity in Wistar rat assessed as inhibition of carrageenan-induced paw edema at 20 mg/kg, po administered 1 hr prior to carrageenan stimulation and measured after 4 hrs by plethysmometric method relative to control. In kind it is functional. Also on record: scale not given: the % may be the effect or the level left. The following applies: time 5 hrs.

Series [8] in a line: Ulcerogenic activity in Wistar rat assessed as incidence of gastric ulceration by measuring severity index at 60 mg/kg, po measured after 17 hrs by microscopic analysis. Format: toxicity, organism-based. The following applies: in vivo.
Series [9] in a line: Acute toxicity in Wistar rat assessed as survival at 100 mg/kg, po administered for 7 days and observed for 14 days. In kind it is organism-based. The following applies: in vivo, 336 h, time 14 day.
Series [10] can be described thus: Acute toxicity in Wistar rat assessed as behavioral changes at 200 mg/kg, po administered for 7 days and observed for 14 days. In kind it is organism-based. The following applies: in vivo, 336 h, time 14 day.
Series [11] concerns Mus musculus. Briefly: Analgesic activity in Swiss albino mouse assessed as inhibition of acetic acid-induced writhing at 20 mg/kg, po administered 30 mins prior to acetic acid treatment and measured for 20 mins. Format: functional. Also on record: scale not given: the % may be the effect or the level left. The following applies: time 50 min. Background: Writhing tests count abdominal constrictions after an irritant is injected.

Series [12] relates to Rattus norvegicus. As to the kind of experiment: Anti-inflammatory activity in Wistar rat assessed as inhibition of carrageenan-induced paw edema at 20 mg/kg, po administered 1 hr prior to carrageenan stimulation and measured after 3 hrs by plethysmometric method relative to control. The following applies: time 4 hrs. Format: functional. Also on record: scale not given: the % may be the effect or the level left. Background: Carrageenan injected into the paw causes an acute inflammation.

Series [13] concerns the target Prostaglandin G/H synthase 1 (Homo sapiens, UniProt P23219). As to the kind of experiment: Inhibition of COX-1 (unknown origin) assessed as reduction in PGH2 formation using arachidonic acid as substrate preincubated for 5 mins followed by substrate addition and measured after 2 mins by enzyme immunoassay.
Series [14] concerns the target T1, Prostaglandin G/H synthase 2 (Homo sapiens, UniProt P35354).
T1 sequence (P35354 whole entry): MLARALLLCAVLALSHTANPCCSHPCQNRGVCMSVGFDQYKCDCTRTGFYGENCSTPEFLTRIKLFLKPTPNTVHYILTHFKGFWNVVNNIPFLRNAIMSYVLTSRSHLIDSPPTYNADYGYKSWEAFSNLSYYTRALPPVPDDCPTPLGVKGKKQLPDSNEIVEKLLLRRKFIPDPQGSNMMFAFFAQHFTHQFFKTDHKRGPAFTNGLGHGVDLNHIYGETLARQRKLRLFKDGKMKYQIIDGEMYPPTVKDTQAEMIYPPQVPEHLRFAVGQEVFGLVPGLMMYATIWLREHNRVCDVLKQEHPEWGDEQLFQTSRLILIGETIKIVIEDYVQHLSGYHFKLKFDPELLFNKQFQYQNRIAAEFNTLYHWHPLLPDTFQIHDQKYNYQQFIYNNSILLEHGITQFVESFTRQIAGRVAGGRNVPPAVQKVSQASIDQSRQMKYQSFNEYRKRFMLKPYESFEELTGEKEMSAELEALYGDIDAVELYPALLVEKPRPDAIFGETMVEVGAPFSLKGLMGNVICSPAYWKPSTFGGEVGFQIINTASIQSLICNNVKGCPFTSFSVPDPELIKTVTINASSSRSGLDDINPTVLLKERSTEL
As to the kind of experiment: Inhibition of COX-2 (unknown origin) assessed as reduction in PGH2 formation using arachidonic acid as substrate preincubated for 5 mins followed by substrate addition and measured after 2 mins by enzyme immunoassay.

Prostaglandin G/H synthase 1, sequence (P23219 whole entry): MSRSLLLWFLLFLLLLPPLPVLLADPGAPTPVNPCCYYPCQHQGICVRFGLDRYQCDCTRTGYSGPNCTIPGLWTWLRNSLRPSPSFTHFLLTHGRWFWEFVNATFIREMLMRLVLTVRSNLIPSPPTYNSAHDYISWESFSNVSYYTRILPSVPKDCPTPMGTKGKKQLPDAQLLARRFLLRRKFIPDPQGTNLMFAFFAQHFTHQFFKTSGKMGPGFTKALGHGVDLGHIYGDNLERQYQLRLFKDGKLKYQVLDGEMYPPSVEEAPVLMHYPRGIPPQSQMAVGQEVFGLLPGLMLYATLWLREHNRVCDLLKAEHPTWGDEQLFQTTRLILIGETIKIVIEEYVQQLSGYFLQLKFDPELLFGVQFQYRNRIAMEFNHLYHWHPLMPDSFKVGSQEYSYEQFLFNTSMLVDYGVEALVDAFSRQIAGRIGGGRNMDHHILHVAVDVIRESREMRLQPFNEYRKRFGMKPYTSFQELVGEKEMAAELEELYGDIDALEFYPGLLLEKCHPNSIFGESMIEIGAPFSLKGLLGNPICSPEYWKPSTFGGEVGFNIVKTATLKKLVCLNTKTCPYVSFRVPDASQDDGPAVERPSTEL

As for `O=C(/C=C/c1ccc(O)c(O)c1)NNC(=O)COc1cccc2ccccc12`, the Activity result in [1], in series [2], in series [3], in [4], in [5] and in [6] was “Non-Toxic” each time. Besides, the Activity in series [7] is reported as 44.45%; in [9] it was “Non-Toxic”; in [10], “Non-Toxic”; in [11], 50.7%; in series [12] it was 49.96%. Moreover, the Activity_index in [8] was found to be 0.46.
Turning to `Cc1ccc(OCC(=O)NNC(=O)/C=C/c2ccc(O)c(O)c2)cc1`, the Activity entry in series [1], in series [2], in series [3], in series [4], in [5] and in [6] was “Non-Toxic” throughout. Further, the Activity is recorded as 55.53% in series [7]; “Non-Toxic” in [9]; “Non-Toxic” in series [10]; 64.68% in series [11]; 58.71% in series [12]. Besides, in series [8], the Activity_index turned out to be 0.38.
Usually IC50 stands for the concentration needed to halve the response being measured. As to `O=C(/C=C/c1ccc(O)c(O)c1)NNC(=O)COc1cccnc1`, the Activity result in series [1], in series [2], in [3], in series [4], in series [5] and in series [6] was “Non-Toxic” each time. Besides, the Activity is given as 60.82% in series [7]; “Non-Toxic” in [9]; “Non-Toxic” in series [10]; 53.41% in series [11]; 63.96% in series [12]. For the same compound, the IC50 in [13] was determined as 182 µM; in [14], 5 µM. For the same compound, the Activity_index in series [8] is on record as 0.4.
For the compound `O=C(/C=C/c1ccc(O)c(O)c1)NNC(=O)COc1ccc(Cl)cc1`, the Activity result in series [1], in series [2], in series [3], in series [4], in series [5] and in [6] was “Non-Toxic” throughout. For the same compound, the Activity in series [7] is given as 72.29%; in series [9], “Non-Toxic”; in [10], “Non-Toxic”; in series [11], 67.85%; in series [12], 75.17%. The IC50 in [13] is 214 µM; in [14] it was 3.17 µM. The Activity_index in series [8] was found to be 0.76.
With `O=C(/C=C/c1ccc(O)c(O)c1)NNC(=O)COc1ccc2ccccc2c1`, the Activity result in [1], in series [2], in series [3], in series [4], in [5] and in series [6] was “Non-Toxic” in each case. Besides, the Activity is recorded as 48.7% in [7]; “Non-Toxic” in [9]; “Non-Toxic” in series [10]; 65.1% in series [11]; 51.61% in series [12]. Further, the Activity_index in [8] was 0.57.
On to `O=C(/C=C/c1ccc(O)c(O)c1)NNC(=O)COc1cccc2cccnc12`, for which the Activity result in series [1], in [2], in series [3], in [4], in [5] and in [6] was “Non-Toxic” throughout. Moreover, the Activity in series [7] is 61.47%; in series [9], “Non-Toxic”; in series [10], “Non-Toxic”; in [11], 57.3%; in series [12] it was 66.61%. The values for the concentration for half-maximal inhibition (IC50) in [13] and in [14] were 126 µM and 4.9 µM, respectively. Besides, the Activity_index in series [8] was 0.53.
In the case of `Cc1ccccc1OCC(=O)NNC(=O)/C=C/c1ccc(O)c(O)c1`, the Activity entry in series [1], in series [2], in [3], in [4], in series [5] and in series [6] was “Non-Toxic” each time. In addition, the Activity in series [7] was 49.83%; in series [9], “Non-Toxic”; in [10], “Non-Toxic”; in series [11], 49.18%; in [12], 54.96%. Besides, the Activity_index in series [8] came out at 0.58.
For `O=C(/C=C/c1ccc(O)c(O)c1)NNC(=O)COc1ccc(Br)cc1`, the Activity result in series [1], in series [2], in series [3], in series [4], in series [5] and in series [6] was “Non-Toxic” in each case. Moreover, the Activity in series [7] is 71.15%; in series [9] it was “Non-Toxic”; in series [10], “Non-Toxic”; in [11], 71.35%; in [12], 74.9%. Further, the IC50 in series [13] came out at 233 µM; in series [14], 3.4 µM. Moreover, in [8], the Activity_index was determined as 0.78.
`Cc1ccc(-c2cc(C(F)(F)F)nn2-c2ccc(S(N)(=O)=O)cc2)cc1` [CELECOXIB]: the Activity in series [7] is reported as 74.56%; in series [11] it was 73.53%; in series [12] it was 78%.
As to `Cc1ccc(OCC(=O)NNC(=O)/C=C/c2ccc(O)c(O)c2)c(C)c1`, the Activity result in series [1], in series [2], in series [3], in series [4], in series [5] and in series [6] was “Non-Toxic” in each case. For the same compound, the Activity in series [7] is 64.45%; in series [9], “Non-Toxic”; in [10], “Non-Toxic”; in [11] it was 45.21%; in [12] it was 67.18%. Moreover, the IC50 in [13] is 107 µM; in series [14], 2.1 µM. Also, in series [8], the Activity_index was 0.26.
Turning to `Cc1ccc2cccc(OCC(=O)NNC(=O)/C=C/c3ccc(O)c(O)c3)c2n1`, the Activity result in series [1], in [2], in [3], in series [4], in series [5] and in series [6] was “Non-Toxic” each time. Also, the Activity is on record as 53.15% in series [7]; “Non-Toxic” in series [9]; “Non-Toxic” in [10]; 49.02% in series [11]; 57.19% in [12]. The Activity_index in series [8] is 0.57.
